We go through 19 compounds from ChEMBL document CHEMBL1140067, “Synthesis, in vitro, and in vivo biological evaluation and molecular docking simulations of chiral alcohol and ether derivatives of the 1,5-diarylpyrrole scaffold as novel anti-inflammatory and analgesic agents” (Bioorg Med Chem, 2008).

In general, IC50 refers to the concentration needed to halve the response being measured.

A value given as a limit tells only on which side of the number the result lay.

Assay [1] concerns the target T1, Prostaglandin G/H synthase 1 (Mus musculus, UniProt P22437).
T1 sequence (P22437 whole entry): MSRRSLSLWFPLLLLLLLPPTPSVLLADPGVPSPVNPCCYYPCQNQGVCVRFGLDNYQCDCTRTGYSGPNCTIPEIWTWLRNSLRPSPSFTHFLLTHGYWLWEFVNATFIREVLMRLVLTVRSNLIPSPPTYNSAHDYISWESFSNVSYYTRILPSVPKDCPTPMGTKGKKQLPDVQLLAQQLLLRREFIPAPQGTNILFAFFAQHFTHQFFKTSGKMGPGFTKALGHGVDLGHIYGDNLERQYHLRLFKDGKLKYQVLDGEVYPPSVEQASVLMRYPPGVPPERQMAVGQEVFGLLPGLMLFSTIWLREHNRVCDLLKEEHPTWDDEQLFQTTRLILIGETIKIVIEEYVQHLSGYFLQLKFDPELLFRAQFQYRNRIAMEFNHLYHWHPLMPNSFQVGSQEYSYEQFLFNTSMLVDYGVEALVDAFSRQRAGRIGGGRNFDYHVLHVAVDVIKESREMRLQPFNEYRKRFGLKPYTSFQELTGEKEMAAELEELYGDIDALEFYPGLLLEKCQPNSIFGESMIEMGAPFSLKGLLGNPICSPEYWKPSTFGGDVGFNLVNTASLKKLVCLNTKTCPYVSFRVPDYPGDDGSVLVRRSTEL
Description: Inhibition of COX1 in arachidonic acid-stimulated mouse J774 cells assessed as inhibition of PGE2 production after 15 mins by radioimmunoassay. Format: cell-based.

The test system of another assay is J774. Description: Selectivity ratio of IC50 for COX1 in arachidonic acid-stimulated mouse J774 cells to IC50 for COX2 in LPS-stimulated mouse J774 cells. The assay is classed as cell-based.
Assay [2] addresses T2, Prostaglandin G/H synthase 2 (Mus musculus, UniProt Q05769).
T2 sequence (Q05769 whole entry): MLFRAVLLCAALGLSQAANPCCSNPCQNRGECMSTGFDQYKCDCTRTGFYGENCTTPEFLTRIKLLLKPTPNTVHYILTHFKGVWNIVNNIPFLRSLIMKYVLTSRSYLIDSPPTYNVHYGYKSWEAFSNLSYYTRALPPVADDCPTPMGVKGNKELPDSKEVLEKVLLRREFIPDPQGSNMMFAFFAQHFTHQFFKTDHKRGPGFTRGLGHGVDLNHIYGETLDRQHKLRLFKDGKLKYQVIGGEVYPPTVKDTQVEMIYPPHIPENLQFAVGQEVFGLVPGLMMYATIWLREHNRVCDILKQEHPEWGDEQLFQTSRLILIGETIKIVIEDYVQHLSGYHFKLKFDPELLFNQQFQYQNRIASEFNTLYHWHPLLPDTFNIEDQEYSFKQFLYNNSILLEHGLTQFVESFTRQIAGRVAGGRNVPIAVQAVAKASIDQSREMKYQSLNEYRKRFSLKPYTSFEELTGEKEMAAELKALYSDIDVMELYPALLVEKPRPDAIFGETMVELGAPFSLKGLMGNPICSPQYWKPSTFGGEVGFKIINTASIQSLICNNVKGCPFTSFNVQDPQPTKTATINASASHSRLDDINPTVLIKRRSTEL
Description: Inhibition of COX2 in LPS-stimulated mouse J774 cells assessed as inhibition of PGE2 production after 15 mins by radioimmunoassay

For assay [3], the target named is T3, Prostaglandin G/H synthase 2 (Homo sapiens, UniProt P35354).
T3 sequence (P35354 whole entry): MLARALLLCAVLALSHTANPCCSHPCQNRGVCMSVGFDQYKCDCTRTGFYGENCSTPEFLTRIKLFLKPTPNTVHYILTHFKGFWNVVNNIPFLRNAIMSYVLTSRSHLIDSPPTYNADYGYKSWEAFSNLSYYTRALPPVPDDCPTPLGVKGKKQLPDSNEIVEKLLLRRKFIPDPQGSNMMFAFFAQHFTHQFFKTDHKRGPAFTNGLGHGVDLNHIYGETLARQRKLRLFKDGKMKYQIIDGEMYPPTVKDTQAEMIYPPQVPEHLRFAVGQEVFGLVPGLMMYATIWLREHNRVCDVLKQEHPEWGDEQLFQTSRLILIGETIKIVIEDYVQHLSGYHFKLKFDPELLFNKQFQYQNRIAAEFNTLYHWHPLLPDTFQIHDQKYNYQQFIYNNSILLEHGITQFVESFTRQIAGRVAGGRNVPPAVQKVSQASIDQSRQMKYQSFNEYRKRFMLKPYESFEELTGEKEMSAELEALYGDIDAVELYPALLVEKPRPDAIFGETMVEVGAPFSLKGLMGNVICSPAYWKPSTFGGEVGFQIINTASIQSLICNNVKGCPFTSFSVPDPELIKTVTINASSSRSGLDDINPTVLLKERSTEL
The assay can be described thus: Inhibition of COX2 in human whole blood assessed as inhibition of TXB2 production by radioimmunoassay. Format: tissue-based.

The subject of assay [4] is Rattus norvegicus. The assay can be described thus: Antiinflammatory activity against carrageenan-induced paw edema in rat assessed as paw volume at 20 mg/kg, po administered 4 hrs post carrageenan challenge measured after 60 mins. The assay is classed as functional. In general terms: In the carrageenan paw model, swelling and tenderness develop within hours.
Assay [5] has as its system Mus musculus. Description: Analgesic activity against acetic acid-induced writhing in po dosed Swiss albino mouse assessed as number of writhes administered 30 mins before test. The assay is classed as functional, organism-based. On the technique in general: Writhing tests count abdominal constrictions after an irritant is injected.
Assay [6] concerns Rattus norvegicus. Description: Analgesic activity against carrageenan-induced hyperalgesia in rat assessed as paw pressure at 20 mg/kg, po after 30 mins. The assay is classed as functional.
For assay [7], the system named is Rattus norvegicus. Description: Analgesic activity against carrageenan-induced hyperalgesia in rat assessed as paw pressure at 20 mg/kg, po after 60 mins. The assay is classed as functional.
Assay [8] addresses Prostaglandin G/H synthase 1 (Homo sapiens, UniProt P23219). Description: Inhibition of COX1 in human whole blood assessed as inhibition of LPS-stimulated PGE2 production by radioimmunoassay. The assay is classed as tissue-based.
Assay [9] deals with Mus musculus. The assay can be described thus: Analgesic activity against acetic acid-induced writhing in Swiss albino mouse assessed as number of writhes at 10 mg/kg, po administered 30 mins before test. Format: functional.
Assay [10] deals with Mus musculus. Description: Analgesic activity against acetic acid-induced writhing in Swiss albino mouse assessed as number of writhes at 20 mg/kg, po administered 30 mins before test. Format: functional.
Assay [11] relates to Rattus norvegicus. Description: Analgesic activity against carrageenan-induced hyperalgesia in rat assessed as paw pressure at 20 mg/kg, po after 120 mins. Format: functional.

Prostaglandin G/H synthase 1 (Homo sapiens, UniProt P23219), sequence (P23219 whole entry): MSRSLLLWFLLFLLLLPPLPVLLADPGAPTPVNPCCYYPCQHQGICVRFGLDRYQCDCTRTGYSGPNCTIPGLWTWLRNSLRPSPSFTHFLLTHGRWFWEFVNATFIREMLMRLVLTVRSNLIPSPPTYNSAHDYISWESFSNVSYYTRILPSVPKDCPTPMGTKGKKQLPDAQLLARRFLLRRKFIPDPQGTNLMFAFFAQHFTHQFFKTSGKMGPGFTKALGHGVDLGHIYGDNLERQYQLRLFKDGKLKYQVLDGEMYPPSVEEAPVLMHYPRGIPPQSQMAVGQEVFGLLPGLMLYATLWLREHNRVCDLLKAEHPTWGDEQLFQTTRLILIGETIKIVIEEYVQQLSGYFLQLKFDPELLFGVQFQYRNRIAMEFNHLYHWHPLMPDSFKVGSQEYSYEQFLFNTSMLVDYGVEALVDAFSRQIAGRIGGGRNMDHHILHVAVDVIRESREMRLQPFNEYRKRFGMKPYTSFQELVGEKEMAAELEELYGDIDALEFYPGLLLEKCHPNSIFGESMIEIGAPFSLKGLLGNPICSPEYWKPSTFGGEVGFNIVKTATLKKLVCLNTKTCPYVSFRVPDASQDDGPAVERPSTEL

`CCOC(=O)[C@H](OCC)c1cc(-c2ccc(S(C)(=O)=O)cc2)n(-c2ccc(OC)cc2)c1C`: the IC50 in assay [1] is > 100 µM; in assay [2], 0.09 µM. For the same compound, the Ratio IC50 with J774 is > 1100.

`CCOC(=O)[C@H](OCC)c1cc(-c2ccc(S(C)(=O)=O)cc2)n(-c2cccc(F)c2)c1C`: the half-inhibitory concentration (IC50) was > 100 µM in assay [1] and 0.81 µM in [2]. Besides, the Ratio IC50 in the assay with J774 was > 100.

With `CCOC(=O)C(OCC)c1cc(-c2ccc(S(C)(=O)=O)cc2)n(-c2ccc(OC)cc2)c1C` (racemic), the figures for the IC50 in assay [1] and in assay [2] were > 100 µM and 0.13 µM, respectively. For the same compound, the Ratio IC50 in the assay on J774 was > 800.

Take `CCOC(=O)[C@@H](O)c1cc(-c2ccc(S(C)(=O)=O)cc2)n(-c2cccc(F)c2)c1C`: the figures for the IC50 in [1] and in assay [2] were > 100 µM and 1.1 µM, respectively. In the assay on J774, the Ratio IC50 is > 90.

For `CCOC(=O)C(OCC)c1cc(-c2ccc(S(C)(=O)=O)cc2)n(-c2cccc(F)c2)c1C` (racemic), the IC50 is > 100 µM in [1] and 0.1 µM in assay [2]. In the assay with J774, the Ratio IC50 was > 1000.

Consider `CCOC(=O)C(O)c1cc(-c2ccc(S(C)(=O)=O)cc2)n(-c2ccccc2)c1C` (racemic), for which, in assay [1], the IC50 was > 100 µM.

Regarding `CCOC(=O)C(O)c1cc(-c2ccc(S(C)(=O)=O)cc2)n(-c2cccc(F)c2)c1C` (racemic), the IC50 in assay [3] is 3.8 µM; in assay [1] it was > 100 µM; in [8] it was 21.3 µM; in [2] it was 0.12 µM. The Activity was 1.4 mL with Rattus norvegicus [4]; “Dose-dependent effect” with Mus musculus [5]; 54.8 g with Rattus norvegicus [6]; 45.2 g with Rattus norvegicus [7]; 26.3 with Mus musculus [9]; 16.1 in the assay on Mus musculus [10]. The Activity in the assay with Rattus norvegicus [11] was 47.5 g. In addition, in the assay on J774, the Ratio IC50 is > 800.

For the compound `CCOC(=O)[C@@H](O)c1cc(-c2ccc(S(C)(=O)=O)cc2)n(-c2ccc(OC)cc2)c1C`, in [1], the IC50 is > 100 µM.

For `CCOC(=O)[C@@H](O)c1cc(-c2ccc(S(C)(=O)=O)cc2)n(-c2ccccc2)c1C`, in [1], the IC50 is > 100 µM.

As to `CCc1cccc2c3c([nH]c12)C(CC)(CC(=O)O)OCC3` (configuration not stated) [ETODOLAC], in [3], the IC50 was determined as 2 µM.

In the case of `CCOC(=O)[C@H](O)c1cc(-c2ccc(S(C)(=O)=O)cc2)n(-c2cccc(F)c2)c1C`, the IC50 in [1] is > 100 µM; in [2] it was 0.075 µM. Besides, the Ratio IC50 in the assay with J774 is > 1300.

On to `CCOC(=O)[C@H](O)c1cc(-c2ccc(S(C)(=O)=O)cc2)n(-c2ccc(OC)cc2)c1C`, for which the IC50 in assay [1] is > 100 µM.

On to `CCOC(=O)[C@@H](OCC)c1cc(-c2ccc(S(C)(=O)=O)cc2)n(-c2ccc(OC)cc2)c1C`, for which the values for the IC50 in assay [1] and in [2] were > 100 µM and 0.14 µM, respectively. Besides, the Ratio IC50 in the assay with J774 was > 700.

Turning to `CCOC(=O)[C@@H](OCC)c1cc(-c2ccc(S(C)(=O)=O)cc2)n(-c2ccccc2)c1C`, the IC50 in assay [1] is > 100 µM; in assay [2], 0.1 µM. The Ratio IC50 in the assay with J774 was > 1000.

On to `CCOC(=O)[C@@H](OCC)c1cc(-c2ccc(S(C)(=O)=O)cc2)n(-c2cccc(F)c2)c1C`, for which the IC50 in [1] is > 100 µM; in assay [2] it was 0.25 µM. For the same compound, in the assay on J774, the Ratio IC50 is > 400.

As for `CCOC(=O)C(O)c1cc(-c2ccc(S(C)(=O)=O)cc2)n(-c2ccc(OC)cc2)c1C` (racemic), the IC50 in assay [1] was > 100 µM.

`CCOC(=O)[C@H](OCC)c1cc(-c2ccc(S(C)(=O)=O)cc2)n(-c2ccccc2)c1C`: the IC50 in assay [1] is > 100 µM; in [2] it was 0.14 µM. For the same compound, in the assay with J774, the Ratio IC50 was > 700.

For the compound `CCOC(=O)C(OCC)c1cc(-c2ccc(S(C)(=O)=O)cc2)n(-c2ccccc2)c1C` (racemic), the IC50 in [1] was > 100 µM; in assay [2], 0.18 µM. Moreover, the Ratio IC50 in the assay on J774 is > 800.

In the case of `CCOC(=O)[C@H](O)c1cc(-c2ccc(S(C)(=O)=O)cc2)n(-c2ccccc2)c1C`, the IC50 in assay [1] was > 100 µM.
